Legend:
NanoLuc = NanoLuc (Oplophorus gracilirostris, UniProt Q9GV45, A31E/A60N/A81I/F95D/I117V/K70R/L54V/L99Q/M102K/N193R/P142E/Q151K/Q38R/Q45L/V71I/Y165I); assay: NANOLUC® (Nluc) inhibitory activity (FIG. 2); format: biochemical; settings: Nluc 2 ng/ml in NanoGlo® buffer, 100 μM furimazine
Experimental: FIG. 2 compares the NANOLUC® (Nluc) inhibitory activity of exemplary compounds of the present invention to PBI-6096, a known Nluc inhibitor. Inhibitors were diluted into CO2-independent media with 10% FBS. Nluc was diluted to 2 ng/ml into NanoGlo® buffer with 100 μM furimazine. Serial dilutions of the inhibitors were added to the NanoLuc/furimazine/NanoGlo® solution, and samples were immediately analyzed using a GloMax®-Multi+ Plate Reader.

[1] = tested on: NanoBiT® HiBit/LgBit bioluminescent complex; assay: Inhibition of bioluminescent complex in lysed HEK293 cells expressing HiBiT fusion plus purified LgBiT (FIG. 3A); format: cell-based, Oplophorus gracilirostris; settings: HEK293 cells lysed with digitonin, purified LgBiT added, 2 hours, 10 μM furimazine
Experimental: FIGS. 3A-3B show the inhibition of bioluminescent complexes in cells. In FIG. 3A, HEK293 cells were transfected with DNA encoding an intracellular NanoBiT® HiBiT fusion protein, plated at 20,000 cells/100 μL growth medium, and incubated for 24 hours. Following 24 hours of expression, cells were lysed with 50 ug/mL (final) of digitonin in OptiMEM and treated with purified NanoBiT® LgBiT non-luminescent polypeptide and serial dilutions of HL-0005. After 2 hours of incubation at room temperature, furimazine was added (10 μM final concentration), and luminescence was measured on a GloMax®-Multi+ Plate Reader.

[2] = tested on: NanoBiT® HiBit/LgBit bioluminescent complex; format: cell-based, Oplophorus gracilirostris; settings: HEK293 cells, optionally lysed with 50 ug/mL digitonin
Experimental: In FIG. 3B, HEK293 cells were transfected with DNA encoding an intracellular NanoBiT® HiBiT fusion protein and DNA encoding an intracellular NanoBiT® LgBiT fusion protein such that the fusion proteins were co-expressed within the cell. Transfected cells were plated at 20,000 cells/100 μL growth medium and incubated for 24 hours. Following 24 hours of expression, cells were optionally lysed with 50 ug/mL of digitonin in OptiMEM and treated with serial dilutions of HL-0005. After 2 hours of incubation at room temperature, furimazine was added (10 μM final concentration), and luminescence was measured on a GloMax® Multi+ Plate Reader.

Sequence of NanoLuc (Q9GV45 28-196 with tags or gaps with the stated changes limits assumed): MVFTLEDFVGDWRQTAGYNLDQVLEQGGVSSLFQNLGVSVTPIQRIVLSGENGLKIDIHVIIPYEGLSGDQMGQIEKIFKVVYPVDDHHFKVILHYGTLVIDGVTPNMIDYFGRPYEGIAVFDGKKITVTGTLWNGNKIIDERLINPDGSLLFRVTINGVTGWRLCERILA

N#Cc1c(NC(=O)c2ccccc2NS(=O)(=O)c2ccccc2)sc2c1CCC2 [HL-0010, N-(3-cyano-5,6-dihydro-4H-cyclopenta[b]thiophen-2-yl)-2-(phenylsulfonamido)benzamide]
inhibition against NanoLuc (NanoLuc): do not show any appreciable inhibition

Cc1ccc(S(=O)(=O)Nc2ccccc2C(=O)Nc2cc3ccccc3s2)cc1 [HL-0005, N-(benzo[b]thiophen-2-yl)-2-((4-methylphenyl)sulfonamido)benzamide]
inhibition of HiBit/LgBit bioluminescent complex in a cellular context [1]: inhibition
cell permeability (IC50 values in lytic and non-lytic conditions compared) [2]: mostly cell permeable
inhibition against NanoLuc (NanoLuc): do not show any appreciable inhibition

Cc1ccc(S(=O)(=O)Nc2ccccc2C(=O)Nc2sc3c(c2C#N)CCCC3)cc1 [JRW-1004, N-(3-cyano-4,5,6,7-tetrahydrobenzo[b]thiophen-2-yl)-2-((4-methylphenyl)sulfonamido)benzamide]
inhibition against NanoLuc (NanoLuc): do not show any appreciable inhibition

Source: US12065421B2, “Inhibitors of oplophorus luciferase-derived bioluminescent complexes” (priority 2018, dated 2024)
